Laboratory results: PMC7281150, “Inspired by Sea Urchins: Warburg Effect Mediated Selectivity of Novel Synthetic Non-Glycoside 1,4-Naphthoquinone-6S-Glucose Conjugates in Prostate Cancer” (Marine Drugs, 2020)

Test system: 22Rv1 cells
Assay: Analysis of mitochondrial membrane potential (JC-1, FACS)
Assay type: cell-based, human
Conditions: 22Rv1, 50 µM, 2 h
Protocol: The drop down of mitochondrial membrane potential (ΔΨm) was measured using staining with ΔΨm-sensitive JC-1 dye (5,5′,6,6′-Tetrachloro-1,1′,3,3′-tetraethyl-imidacarbocyanine iodide) and flow cytometry technique. Cells (10^5 cells/well) were seeded in 12-well plates and incubated overnight. […] The cells were trypsinized, pelleted, resuspended in 100 µL of 2 µM JC-1/PBS, incubated for 1 h (37 °C, 5% CO2, in the dark), and analyzed by flow cytometry technique.
With `N#CC(C#N)=NNc1cccc(Cl)c1` [CCCP, 2-[2-(3-chlorophenyl)hydrazinylyidene]propanedinitrile, reference compound] the “cells containing depolarized mitochondria (JC-1)” value was 94±0.3%.

Same assay, conditions: 22Rv1, 50 µM, 48 h
For `N#CC(C#N)=NNc1cccc(Cl)c1` [CCCP, 2-[2-(3-chlorophenyl)hydrazinylyidene]propanedinitrile, reference compound], the “cells containing depolarized mitochondria (JC-1)” value was 92.1±1.8%.

Test system: not given
Assay: not given
Conditions: not given
In the case of `CC(=O)O[C@@H]1O[C@H](CSC2=CC(=O)c3c(O)c(C)c(C)c(O)c3C2=O)[C@@H](OC(C)=O)[C@H](OC(C)=O)[C@H]1OC(C)=O` [SAB-1, 2-(1,2,3,4-Tetra-O-acetyl-6-deoxy-β-D-glucopyranos-6-ylthio)-5,8-dihydroxy-6,7-dimethyl-1,4-naphthoquinone], the melting point is reported as 203 to 205 °C. `CC(=O)O[C@@H]1O[C@H](CSc2c(C)c(O)c3c(c2O)C(=O)C(O)=C(O)C3=O)[C@@H](OC(C)=O)[C@H](OC(C)=O)[C@H]1OC(C)=O` [SAB-3, 6-(1,2,3,4-Tetra-O-acetyl-6-deoxy-β-D-glucopyranos-6-ylthio)-2,3,5,8-tetrahydroxy-7-methyl-1,4-naphthoquinone] gave a melting point of 207 to 211 °C. Compound `COc1c(O)c2c(c(O)c1SC[C@H]1O[C@@H](OC(C)=O)[C@H](OC(C)=O)[C@@H](OC(C)=O)[C@@H]1OC(C)=O)C(=O)C(O)=CC2=O` [SAB-5, 7-(1,2,3,4-Tetra-O-acetyl-6-deoxy-β-D-glucopyranos-6-ylthio)-2,5,8-trihydroxy-6-methoxy-1,4-naphthoquinone] has a melting point of 109 to 112 °C. For `CC(=O)O[C@@H]1O[C@H](CSC2=C(C)C(=O)c3c(O)cccc3C2=O)[C@@H](OC(C)=O)[C@H](OC(C)=O)[C@H]1OC(C)=O` [SAB-7, 2-(1,2,3,4-Tetra-O-acetyl-6-deoxy-β-D-glucopyranos-6-ylthio)-5-hydroxy-3-methyl-1,4-naphthoquinone], the melting point was 160 to 161 °C. Work on `CC(=O)O[C@@H]1O[C@H](CSC2=C(SC[C@H]3O[C@@H](OC(C)=O)[C@H](OC(C)=O)[C@@H](OC(C)=O)[C@@H]3OC(C)=O)C(=O)c3c(O)c(C)c(C)c(O)c3C2=O)[C@@H](OC(C)=O)[C@H](OC(C)=O)[C@H]1OC(C)=O` [SAB-9, 2,3-Di(1,2,3,4-tetra-O-acetyl-6-deoxy-β-D-glucopyranos-6-ylthio)-5,8-dihydroxy-6,7-dimethyl-1,4-naphthoquinone] yielded a melting point of 202 to 205 °C. `CCC1=C(O)C(=O)c2c(O)c(SC[C@H]3O[C@@H](OC(C)=O)[C@H](OC(C)=O)[C@@H](OC(C)=O)[C@@H]3OC(C)=O)c(OC)c(O)c2C1=O` [SAB-11, 7-(1,2,3,4-Tetra-O-acetyl-6-deoxy-β-D-glucopyranos-6-ylthio)-3-ethyl-2,5,8-trihydroxy-6-methoxy-1,4-naphthoquinone] showed a melting point of 167 to 171 °C. Work on `CC(=O)O[C@@H]1O[C@H](CSc2c(C)c(O)c3c(c2O)C(=O)C(C)=C(C)C3=O)[C@@H](OC(C)=O)[C@H](OC(C)=O)[C@H]1OC(C)=O` [SAB-15, 6-(1,2,3,4-Tetra-O-acetyl-6-deoxy-β-D-glucopyranos-6-ylthio)-5,8-dihydroxy-2,3,7-trimethyl-1,4-naphthoquinone] yielded a melting point of 148 to 151 °C. `CCc1c(O)c2c(c(O)c1SC[C@H]1O[C@@H](OC(C)=O)[C@H](OC(C)=O)[C@@H](OC(C)=O)[C@@H]1OC(C)=O)C(=O)C(C)=C(C)C2=O` [SAB-17, 6-(1,2,3,4-Tetra-O-acetyl-6-deoxy-β-D-glucopyranos-6-ylthio)-7-ethyl-5,8-dihydroxy-2,3-dimethyl-1,4-naphthoquinone] gave a melting point of 179 to 182 °C. For `CC(=O)O[C@@H]1O[C@H](CSC2=C(Cl)C(=O)c3c(O)c(Cl)c(Cl)c(O)c3C2=O)[C@@H](OC(C)=O)[C@H](OC(C)=O)[C@H]1OC(C)=O` [SAB-19, 2-(1,2,3,4-Tetra-O-acetyl-6-deoxy-β-D-glucopyranos-6-ylthio)-3,6,7-trichloro-5,8-dihydroxy-1,4-naphthoquinone], the melting point was 156 to 159 °C. In the case of `CC(=O)O[C@@H]1O[C@H](CSC2=CC(=O)c3c(O)ccc(O)c3C2=O)[C@@H](OC(C)=O)[C@H](OC(C)=O)[C@H]1OC(C)=O` [SAB-21, 2-(1,2,3,4-Tetra-O-acetyl-6-deoxy-β-D-glucopyranos-6-ylthio)-5,8-dihydroxy-1,4-naphthoquinone], the melting point is reported as 207 to 210 °C. With `CC(=O)Oc1cccc2c1C(=O)C=C(SC[C@H]1O[C@@H](OC(C)=O)[C@H](OC(C)=O)[C@@H](OC(C)=O)[C@@H]1OC(C)=O)C2=O` [SAB-25, 2-(1,2,3,4-Tetra-O-acetyl-6-deoxy-β-D-glucopyranos-6-ylthio)-5-acetoxy-1,4-naphthoquinone] the melting point was 172 to 175 °C.

Test system: 22Rv1 cells
Assay: Analysis of intracellular ROS level (CM-H2DCFDA, FACS)
Assay type: cell-based, human
Conditions: 22Rv1, 200 μM, 2 h
Protocol: Intracellular ROS levels were accessed using the ROS-sensitive CM-H2DCFDA reagent (Cat. No. C6827, Molecular probes, Invitrogen, Eugene, OR, USA). The experiment was performed as previously described with slight modifications. In brief, 22Rv1 cells (10^5 cells/well) were seeded in 12-well plates and incubated overnight. The media was changed with freshly made pre-warmed staining solution (4 µM CM-H2DCFDA/PBS, 0.5 mL/well) and incubated in the dark (37 °C, 5% CO2) for 30 min. Then, the staining solution was exchanged with 1 mL/well of pre-warmed PBS containing the investigated compounds or H2O2 (positive control) at the indicated concentrations and the cells were incubated for 2 h. Next, the cells were trypsinized, resuspended in pre-warmed PBS (200 µL/sample) and immediately analyzed by FACS according to the manufacture′s protocol.
For `OO` [H2O2, reference compound], the “ROS level (CM-H2DCFDA, FACS)” value was 68.4±1.5%.
